Test system: Homo sapiens
Test: In vivo inhibition of IDO1 in malignant glioma patient assessed as reduction in intratumoral kynurenine levels relative to control
Assay type: functional

O=C1CC(c2c[nH]c3ccc(F)cc23)C(=O)N1 (stereo unspecified) [PF-06840003]
inhibition (INH): >80%
